In PubChem BioAssay (NCI):
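1) Cells in 96-well plates. 2) Compound, 48 h, 5 concentrations. 3) Linear interpolation between surrounding doses. 4) Unreached endpoint = highest concentration. GI50 = concentration required for 50% inhibition of growth. Definition used: TGI = concentration required for complete inhibition of growth.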

How the values were obtained:
Assay in all cases: NCI anticancer screen, dose series, 48 h
MDA-MB-435 = system: MDA-MB-435
UO-31 renal = system: UO-31 renal
M14 melanoma = system: M14 melanoma
OVCAR-4 ovarian = system: OVCAR-4 ovarian
OVCAR-5 ovarian = system: OVCAR-5 ovarian
K-562 leukemia = system: K-562 leukemia
PC-3 prostate = system: PC-3 prostate
SR leukemia = system: SR leukemia
LOX IMVI melanoma = system: LOX IMVI melanoma
DU-145 prostate = system: DU-145 prostate
HOP-92 NSCLC = system: HOP-92 NSCLC
UACC-62 melanoma = system: UACC-62 melanoma
SF-268 CNS = system: SF-268 CNS
CCRF-CEM leukemia = system: CCRF-CEM leukemia
SNB-19 CNS = system: SNB-19 CNS
OVCAR-8 ovarian = system: OVCAR-8 ovarian
SK-MEL-2 melanoma = system: SK-MEL-2 melanoma
HOP-62 NSCLC = system: HOP-62 NSCLC
T-47D breast = system: T-47D breast
TK-10 renal = system: TK-10 renal
ACHN renal = system: ACHN renal
COLO 205 colon = system: COLO 205 colon
NCI-H460 lung = system: NCI-H460 lung
HCT-15 colon = system: HCT-15 colon
BT-549 breast = system: BT-549 breast
NCI-H522 lung = system: NCI-H522 lung
NCI-H226 lung = system: NCI-H226 lung
SF-539 CNS = system: SF-539 CNS
MDA-MB-231 breast = system: MDA-MB-231 breast
IGROV1 ovarian = system: IGROV1 ovarian
NCI-H23 lung = system: NCI-H23 lung
SK-MEL-5 melanoma = system: SK-MEL-5 melanoma
SNB-75 CNS = system: SNB-75 CNS
MOLT-4 leukemia = system: MOLT-4 leukemia
HCC-2998 colon = system: HCC-2998 colon
SN12C renal = system: SN12C renal
SF-295 CNS = system: SF-295 CNS
U251 CNS = system: U251 CNS
MALME-3M melanoma = system: MALME-3M melanoma
SK-OV-3 ovarian = system: SK-OV-3 ovarian
SW-620 colon = system: SW-620 colon
MCF7 breast = system: MCF7 breast
HS 578T breast = system: HS 578T breast
HT29 colon = system: HT29 colon
KM12 colon = system: KM12 colon
HL-60(TB) leukemia = system: HL-60(TB) leukemia
SK-MEL-28 melanoma = system: SK-MEL-28 melanoma
NCI/ADR-RES ovarian = system: NCI/ADR-RES ovarian
RXF 393 renal = system: RXF 393 renal
A498 renal = system: A498 renal
A549 NSCLC = system: A549 NSCLC
786-0 renal = system: 786-0 renal
UACC-257 melanoma = system: UACC-257 melanoma
CAKI-1 renal = system: CAKI-1 renal
RPMI-8226 leukemia = system: RPMI-8226 leukemia
EKVX NSCLC = system: EKVX NSCLC

## Nc1ccccc1NC(=O)c1ccc(NC(=O)C/C=C/c2cccnc2)cn1
MDA-MB-435
  GI50: 1100 nM
  TGI: > 16 µM
UO-31 renal
  GI50: 702 nM
  TGI: 16.6 µM
M14 melanoma
  GI50: 704 nM
  TGI: 11.4 µM
OVCAR-4 ovarian
  GI50: 1990 nM
  TGI: > 50 µM
OVCAR-5 ovarian
  GI50: 509 nM
  TGI: > 50 µM
K-562 leukemia
  GI50: 213 nM
  TGI: > 50 µM
PC-3 prostate
  GI50: 806 nM
  TGI: > 50 µM
SR leukemia
  GI50: 435 nM
  TGI: > 50 µM
LOX IMVI melanoma
  GI50: 286 nM
  TGI: 3.95 µM
DU-145 prostate
  GI50: 544 nM
  TGI: 2060 nM
HOP-92 NSCLC
  GI50: 95.3 nM
  TGI: 1260 nM
UACC-62 melanoma
  GI50: 745 nM
  TGI: 3.6 µM
SF-268 CNS
  GI50: 1300 nM
  TGI: > 40 µM
CCRF-CEM leukemia
  GI50: 216 nM
  TGI: > 50 µM
SNB-19 CNS
  GI50: 1720 nM
  TGI: > 50 µM
OVCAR-8 ovarian
  GI50: 83.9 nM
  TGI: > 50 µM
SK-MEL-2 melanoma
  GI50: 816 nM
  TGI: 5.09 µM
HOP-62 NSCLC
  GI50: 1110 nM
  TGI: > 24.9 µM
T-47D breast
  GI50: 279 nM
  TGI: > 13.7 µM
TK-10 renal
  GI50: 58.3 nM
  TGI: 1800 nM
ACHN renal
  GI50: 1520 nM
  TGI: > 50 µM
COLO 205 colon
  GI50: 445 nM
  TGI: 2390 nM
NCI-H460 lung
  GI50: 745 nM
  TGI: > 37.4 µM
HCT-15 colon
  GI50: 523 nM
  TGI: > 50 µM
BT-549 breast
  GI50: 777 nM
  TGI: 3.73 µM
NCI-H522 lung
  GI50: 334 nM
  TGI: 3.37 µM
NCI-H226 lung
  GI50: 1080 nM
  TGI: 19.6 µM
SF-539 CNS
  GI50: 148 nM
  TGI: 3.07 µM
MDA-MB-231 breast
  GI50: 3.35 µM
  TGI: > 50 µM
IGROV1 ovarian
  GI50: 601 nM
  TGI: > 50 µM
NCI-H23 lung
  GI50: 1450 nM
  TGI: > 24.9 µM
SK-MEL-5 melanoma
  GI50: 958 nM
  TGI: 2370 nM
SNB-75 CNS
  GI50: 674 nM
  TGI: > 47.6 µM
MOLT-4 leukemia
  GI50: 724 nM
  TGI: > 50 µM
HCC-2998 colon
  GI50: 801 nM
  TGI: 4.26 µM
SN12C renal
  GI50: 329 nM
  TGI: > 50 µM
SF-295 CNS
  GI50: 1400 nM
  TGI: 8.28 µM
U251 CNS
  GI50: 732 nM
  TGI: > 23.6 µM
MALME-3M melanoma
  GI50: 190 nM
SK-OV-3 ovarian
  GI50: 1670 nM
  TGI: > 27.4 µM
SW-620 colon
  GI50: 188 nM
  TGI: > 14.8 µM
MCF7 breast
  GI50: 806 nM
  TGI: > 13.5 µM
HS 578T breast
  GI50: 826 nM
  TGI: 37.1 µM
HT29 colon
  GI50: 531 nM
  TGI: > 33.9 µM
KM12 colon
  GI50: 1430 nM
  TGI: > 20.5 µM
HL-60(TB) leukemia
  GI50: 284 nM
  TGI: > 29.4 µM
SK-MEL-28 melanoma
  GI50: 866 nM
  TGI: 2650 nM
NCI/ADR-RES ovarian
  GI50: 1160 nM
  TGI: > 50 µM
RXF 393 renal
  GI50: 864 nM
  TGI: 5.9 µM
A498 renal
  GI50: 347 nM
  TGI: 1620 nM
A549 NSCLC
  GI50: 2040 nM
  TGI: > 50 µM
786-0 renal
  GI50: 1520 nM
  TGI: 8.17 µM
UACC-257 melanoma
  GI50: 798 nM
  TGI: > 13.3 µM
CAKI-1 renal
  GI50: 1680 nM
  TGI: 13 µM
RPMI-8226 leukemia
  GI50: 336 nM
  TGI: > 10.2 µM
EKVX NSCLC
  GI50: 2380 nM
  TGI: > 50 µM
